# From PubChem BioAssay (NCI)
#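 Each compound was tested at five concentrations against cells in 96-well plates for 48 hours. GI50 = concentration required for 50% inhibition of growth. TGI is the concentration that stops growth completely.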
# Experiments:
# Assay in all cases: NCI tumour cell line growth inhibition, 48 h
# HOP-62 NSCLC = tested on: HOP-62 NSCLC
# MALME-3M melanoma = tested on: MALME-3M melanoma
# UACC-62 melanoma = tested on: UACC-62 melanoma
# SNB-19 CNS = tested on: SNB-19 CNS
# HCT-15 colon = tested on: HCT-15 colon
# SK-MEL-2 melanoma = tested on: SK-MEL-2 melanoma
# NCI-H226 lung = tested on: NCI-H226 lung
# SF-295 CNS = tested on: SF-295 CNS
# SF-539 CNS = tested on: SF-539 CNS
# SN12C renal = tested on: SN12C renal
# UACC-257 melanoma = tested on: UACC-257 melanoma
# CAKI-1 renal = tested on: CAKI-1 renal
# K-562 leukemia = tested on: K-562 leukemia
# NCI-H23 lung = tested on: NCI-H23 lung
# SR leukemia = tested on: SR leukemia
SMILES,TGI (HOP-62 NSCLC) [µM],TGI (MALME-3M melanoma) [µM],TGI (UACC-62 melanoma) [µM],TGI (SNB-19 CNS) [µM],TGI (HCT-15 colon) [µM],TGI (SK-MEL-2 melanoma) [µM],TGI (NCI-H226 lung) [µM],TGI (SF-295 CNS) [µM],TGI (SF-539 CNS) [µM],TGI (SN12C renal) [µM],TGI (UACC-257 melanoma) [µM],TGI (CAKI-1 renal) [µM],GI50 (HOP-62 NSCLC) [µM],GI50 (HCT-15 colon) [µM],TGI (K-562 leukemia) [µM],GI50 (NCI-H226 lung) [µM],GI50 (NCI-H23 lung) [µM],TGI (NCI-H23 lung) [µM],GI50 (SN12C renal) [µM],TGI (SR leukemia) [µM]
OC1OC(c2ccc[nH]2)C(F)(F)C(F)(F)C1(F)F (stereo not drawn),> 100,> 100,> 100,> 100,> 100,> 100,> 100,> 100,> 100,> 100,> 100,> 100,–,–,–,–,–,–,–,–
CO[C@H]1C[C@@H]2CC[C@@H](C)[C@@](O)(O2)C(=O)C(=O)N2CCCC[C@H]2C(=O)O[C@H]([C@H](C)C[C@@H]2CC[C@@H](OC(=O)C(C)(CO)CO)[C@H](OC)C2)CC(=O)[C@H](C)/C=C(\C)[C@@H](O)[C@@H](OC)C(=O)[C@H](C)C[C@H](C)/C=C/C=C/C=C/1C,> 100,–,29.7,> 100,> 100,> 55.1,22.1,> 100,5.23,> 71.3,51.5,> 79.7,< 0.0202,< 0.0222,> 100,0.0187,1.34,> 100,0.497,–
CC1(C)C[C@H]2C3=CC[C@@H]4[C@@]5(C)CC[C@H](O)C(C)(C)[C@@H]5CC[C@@]4(C)[C@]3(C)C[C@@H](O)[C@@]23C[C@@H]1OC3=O,> 100,> 100,> 100,> 100,> 100,> 100,–,> 100,> 100,> 100,> 100,> 100,–,–,> 100,–,–,> 100,–,> 100
N=c1oc2cc(O)c(O)cc2cc1C(N)=O,> 100,> 100,> 100,> 100,> 100,> 100,> 100,> 100,> 100,> 100,> 100,> 100,–,–,> 100,–,–,> 100,–,–
NC(=S)Nc1nnc(-c2ccc(-c3nnc(NC(N)=S)o3)cc2)o1,> 100,> 100,> 100,> 100,> 100,> 100,> 100,> 100,> 100,> 100,> 100,> 100,–,–,> 100,–,–,> 100,–,–
COc1cc(/C=C2\CCC(C)c3c2nc(N)c(C#N)c3-c2cc(OC)c(OC)c(OC)c2)cc(OC)c1OC (stereo not drawn),> 100,–,> 100,> 100,> 100,> 100,–,–,–,> 100,> 100,> 100,–,–,> 100,–,–,–,–,> 100
Cc1cccc(NC(=O)CSc2nnc(Cc3ccccc3)o2)c1,> 100,> 100,> 100,> 100,> 100,> 100,> 100,> 100,> 100,> 100,> 100,> 100,–,–,> 100,–,–,> 100,–,–
C1=Cc2nc1c(-c1ccccc1)c1ccc([n-]1)c(-c1ccccc1)c1nc(c(-c3ccccc3)c3ccc([n-]3)c2-c2ccccc2)C=C1.[Zn+2],> 100,> 100,> 100,> 100,> 100,> 100,> 100,> 100,> 100,> 100,> 100,> 100,–,–,> 100,–,–,> 100,–,–
C#CCOC(=O)C(N)CS (stereo not drawn),> 100,> 100,> 100,–,–,> 100,> 100,> 100,–,> 100,> 100,> 100,–,–,> 100,–,–,> 100,–,–
NC(=Nc1ccc(Cl)c(Cl)c1)c1ccccc1N,> 100,45.9,> 100,> 100,> 100,86.8,> 100,> 100,–,–,92.7,> 100,–,–,41.9,–,–,> 100,–,–
Cc1nc(Nc2ccccc2)sc1C(=O)NNC(N)=O,> 100,> 100,> 100,> 100,–,> 100,> 100,> 100,> 100,> 100,71.6,> 100,–,–,> 100,–,–,> 100,–,–
CN(C)c1cccc(-c2cc(=O)c3cc4c(cc3[nH]2)OCO4)c1,> 73.9,–,> 100,> 57.6,> 90,> 100,1.32,0.693,0.756,> 100,> 100,> 100,–,–,> 100,–,–,–,–,> 100
C=CCN1C(=O)N/C(=C\c2ccc(Cl)cc2)C1=O,> 100,> 100,> 100,> 100,> 100,–,> 100,> 100,> 100,> 100,> 100,> 100,–,–,> 100,–,–,> 100,–,–
C=CCNC(NCC=C)=C(C(Cl)=C(Cl)Cl)[N+](=O)[O-],> 100,30.7,> 100,> 100,32.9,> 100,> 100,> 100,71.7,> 100,> 100,> 100,–,–,54.3,–,–,> 100,–,–
Clc1cccc(Cl)c1C1SCc2nc3cc4ccccc4cc3n21 (stereo not drawn),> 100,> 100,> 100,> 100,> 100,> 100,> 100,> 100,–,> 100,> 100,> 100,–,–,> 100,–,–,> 100,–,–
COc1ccc(-c2cc(=O)c3c(O)c(OC)c(O)cc3o2)cc1O,> 100,> 25.8,31.4,> 100,> 100,> 43.5,> 90.8,> 100,21.9,> 100,> 100,> 73.2,–,–,> 52.7,–,–,> 100,–,–
